15 molecules from ChEMBL document CHEMBL6153055, “Design, Synthesis, and Pharmacological Evaluation of Nonsteroidal Tricyclic Ligands as Modulators of GABAA Receptors” (J Med Chem, 2025) can be followed below.

Data set [1] deals with HEK293. The data set is described as follows: Positive allosteric modulation of recombinant mouse alpha1 Q241L mutant/beta3/gamma2 GABAA receptor expressed in GFP tagged HEK293 cells by whole-cell voltage clamp electrophysiological analysis. The format is cell-based.
Data set [2] is described as follows: Solubility of the compound at 100 uM. The format is physicochemical.
Data set [3] concerns the target T1, Gamma-aminobutyric acid receptor subunit alpha-1/beta-3/gamma-2 (Mus musculus, UniProt P22723+P62812+P63080). The data set is described as follows: Negative allosteric modulation of recombinant mouse alpha1beta3gamma2 GABAA receptor expressed in GFP tagged HEK293 cells at steady state current by whole-cell voltage clamp electrophysiological analysis. In kind it is cell-based.

Data set [4] deals with T2, Gamma-aminobutyric acid receptor subunit alpha-1/beta-3/gamma-2 (Mus musculus) (UniProt P22723+P62812+P63080). The data set can be described thus: Negative allosteric modulation of recombinant mouse alpha1beta3gamma2 GABAA receptor expressed in GFP tagged HEK293 cells at 100 uM by whole-cell voltage clamp electrophysiological analysis. Conditions: filed as negative allosteric modulator. The format is cell-based.

Data set [5] has as its target T1, Gamma-aminobutyric acid receptor subunit alpha-1/beta-3/gamma-2. The data set can be described thus: Negative allosteric modulation of recombinant mouse alpha1beta3gamma2 GABAA receptor expressed in GFP tagged HEK293 cells at peak current by whole-cell voltage clamp electrophysiological analysis. The format is cell-based.
The target in data set [6] is T2, Gamma-aminobutyric acid receptor subunit alpha-1/beta-3/gamma-2 (Mus musculus). The data set can be described thus: Negative allosteric modulation of recombinant mouse alpha1beta3gamma2 GABAA receptor expressed in GFP tagged HEK293 cells at 100 uM by whole-cell voltage clamp electrophysiological analysis relative control. Conditions: filed as negative allosteric modulator. The format is cell-based.

The target is the same in data set [7]. The data set is described as follows: Positive allosteric modulation of recombinant mouse alpha1beta3gamma2 GABAA receptor expressed in GFP tagged HEK293 cells assessed as maximum GABA current at 100 uM by whole-cell voltage clamp electrophysiological analysis. In kind it is cell-based. Conditions: filed as positive allosteric modulator.
In data set [8] the test system is HEK293. The data set can be described thus: Positive allosteric modulation of recombinant mouse alpha1 Q241L mutant/beta3/gamma2 GABAA receptor expressed in GFP tagged HEK293 cells at 100 uM by whole-cell voltage clamp electrophysiological analysis. The format is cell-based.
For data set [9], the system named is HEK293. The data set is described as follows: Negative allosteric modulation of recombinant mouse alpha1 Q241L mutant/beta3/gamma2 GABAA receptor expressed in GFP tagged HEK293 cells assessed as inhibition of steady-state level at 100 uM by whole-cell voltage clamp electrophysiological analysis. In kind it is cell-based.
Data set [10] deals with HEK293. The data set is described as follows: Negative allosteric modulation of recombinant mouse alpha1 Q241L mutant/beta3/gamma2 GABAA receptor expressed in GFP tagged HEK293 cells assessed as inhibition of peak current at 100 uM by whole-cell voltage clamp electrophysiological analysis. The format is cell-based.
The target of data set [11] is T2, Gamma-aminobutyric acid receptor subunit alpha-1/beta-3/gamma-2 (Mus musculus). The data set can be described thus: Positive allosteric modulation of recombinant wild type mouse alpha1beta3gamma2 GABAA receptor expressed in GFP tagged HEK293 cells at 100 uM by whole-cell voltage clamp electrophysiological analysis. The format is cell-based.
Data set [12] has the same target. The data set can be described thus: Positive allosteric modulation of recombinant mouse alpha1beta3gamma2 GABAA receptor expressed in GFP tagged HEK293 cells assessed as maximum GABA current by measuring maximum activation at 100 uM by whole-cell voltage clamp electrophysiological analysis relative to control. In kind it is cell-based. Conditions: filed as positive allosteric modulator.

Data set [13] has as its target T3, GABA-A receptor; anion channel (Rattus norvegicus) (UniProt O09028+P15431+P18506+P18508+P19969+P20236+P23574+P23576+P28471+P28473+P30191+P62813+P63079+P63138+Q91ZM7+Q9ES14). The data set is described as follows: Positive allosteric modulation of GABAA receptor in Sprague-Dawley rat Hippocampal neuron assessed as potentiation of tonic holding current at 30 uM by whole-cell voltage-clamp electrophysiological analysis. Conditions: filed as positive allosteric modulator. The format is cell-based.

Data set [14] addresses T3, GABA-A receptor; anion channel (Rattus norvegicus). The data set can be described thus: Positive allosteric modulation of GABAA receptor in Sprague-Dawley rat Hippocampal neuron assessed as decrease in spontaneous IPSC frequency at 10 uM by whole-cell voltage-clamp electrophysiological analysis. The format is cell-based. Conditions: filed as positive allosteric modulator.

Data set [15] has the same target. The data set can be described thus: Positive allosteric modulation of GABAA receptor in Sprague-Dawley rat Hippocampal neuron assessed as prolongation of spontaneous IPSC decay time at 10 uM by whole-cell voltage-clamp electrophysiological analysis. The format is cell-based. Conditions: filed as positive allosteric modulator.
Data set [16] has the same target. The data set can be described thus: Positive allosteric modulation of GABAA receptor in Sprague-Dawley rat Hippocampal neuron assessed as reduction in spontaneous IPSC amplitude at 10 uM by whole-cell voltage-clamp electrophysiological analysis. The format is cell-based. Conditions: filed as positive allosteric modulator.

Activity calls are given as the source filed them. No cut-off for these calls is given here.

T1 sequence (P22723 whole entry): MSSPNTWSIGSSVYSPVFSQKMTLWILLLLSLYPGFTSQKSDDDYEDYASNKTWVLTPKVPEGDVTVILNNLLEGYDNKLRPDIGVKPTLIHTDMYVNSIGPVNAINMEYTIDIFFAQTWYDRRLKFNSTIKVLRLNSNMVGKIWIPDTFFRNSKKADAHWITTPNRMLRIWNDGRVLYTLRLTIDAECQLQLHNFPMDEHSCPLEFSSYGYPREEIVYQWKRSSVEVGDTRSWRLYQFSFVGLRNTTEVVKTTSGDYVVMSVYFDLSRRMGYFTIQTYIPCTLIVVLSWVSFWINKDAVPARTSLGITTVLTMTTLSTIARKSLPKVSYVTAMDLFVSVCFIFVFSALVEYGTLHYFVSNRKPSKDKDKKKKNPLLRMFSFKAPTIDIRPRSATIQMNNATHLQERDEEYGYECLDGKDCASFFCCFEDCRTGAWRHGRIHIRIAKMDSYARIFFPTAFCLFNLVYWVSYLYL
T1 sequence (P62812 whole entry): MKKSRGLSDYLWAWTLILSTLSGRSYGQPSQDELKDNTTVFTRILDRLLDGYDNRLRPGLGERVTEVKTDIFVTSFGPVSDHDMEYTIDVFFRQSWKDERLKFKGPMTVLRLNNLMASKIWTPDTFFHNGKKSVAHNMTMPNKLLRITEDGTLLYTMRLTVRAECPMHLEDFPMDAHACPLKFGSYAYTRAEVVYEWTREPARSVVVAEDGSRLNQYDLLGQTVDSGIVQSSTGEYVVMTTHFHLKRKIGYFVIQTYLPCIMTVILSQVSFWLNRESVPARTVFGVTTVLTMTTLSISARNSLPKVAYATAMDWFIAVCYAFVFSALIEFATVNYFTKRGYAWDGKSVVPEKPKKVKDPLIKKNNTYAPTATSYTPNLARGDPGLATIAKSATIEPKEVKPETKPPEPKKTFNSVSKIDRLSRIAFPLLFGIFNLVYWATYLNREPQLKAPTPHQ
T1 sequence (P63080 whole entry): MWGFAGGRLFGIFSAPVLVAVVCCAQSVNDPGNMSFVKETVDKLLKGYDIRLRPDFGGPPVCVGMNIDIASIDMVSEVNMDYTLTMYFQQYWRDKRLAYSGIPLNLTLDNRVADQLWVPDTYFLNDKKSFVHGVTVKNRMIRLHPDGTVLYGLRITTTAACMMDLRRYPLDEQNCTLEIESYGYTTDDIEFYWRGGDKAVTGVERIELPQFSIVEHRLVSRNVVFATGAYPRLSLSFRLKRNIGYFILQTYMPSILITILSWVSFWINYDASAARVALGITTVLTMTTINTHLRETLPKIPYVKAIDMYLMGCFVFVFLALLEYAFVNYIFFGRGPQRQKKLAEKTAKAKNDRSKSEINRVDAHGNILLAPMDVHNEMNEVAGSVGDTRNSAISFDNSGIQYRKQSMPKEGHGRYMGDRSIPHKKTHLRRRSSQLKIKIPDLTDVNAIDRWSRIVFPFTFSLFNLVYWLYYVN

Consider `CC(=O)c1cccc(C2=C[C@H]3CC[C@H](O)[C@@]3(C)CC2)c1`, for which, in the data set with HEK293 [1], the result was inactive.

The term IC50 denotes the concentration needed to halve the response being measured. For `C[C@@]12CC/C(=C/CO)C[C@H]1CCc1ccccc12`, the solubility entry in data set [2] is “soluble”. The half-maximal inhibitory concentration (IC50) is 23 µM in data set [3] and 114 µM in data set [5]. The outcome in data set [4] was Active.

For the molecule `C[C@]12CC[C@@H](c3ccccc3)C[C@H]1CC[C@@H]2O` (relative stereo), the solubility entry in data set [2] was “soluble”. For the same molecule, the figures for the IC50 in [3] and in data set [5] were 21 µM and 27 µM, respectively. Moreover, the result in [4] and in [7] was Active. Further, the Activity in data set [6] was 100%.

Regarding `CC(=O)[C@H]1CC[C@H]2[C@@H]3CC=C4C[C@@H](OS(=O)(=O)O)CC[C@]4(C)[C@H]3CC[C@]12C`, the IC50 was 3.2 µM in data set [3] and 292 µM in data set [5].

Consider `O[C@H]1CC[C@@H](c2ccc3c(c2)CCC3)CC1`, for which the solubility result in [2] is recorded as “soluble”. Also, the IC50 in data set [3] came to 18 µM; in data set [5] it was 55 µM. Besides, the result in data set [4] and in data set [7] was Active.

On to `C[C@]12CC[C@@H](c3ccccc3)C[C@H]1CC[C@@H]2OS(=O)(=O)O` (mixture of isomers), for which the solubility result in data set [2] is recorded as “soluble”. The results for the IC50 in data set [3] and in data set [5] were 42 µM and 76 µM, respectively. Besides, the outcome in [4] and in data set [7] was Active.

On to `O[C@H]1CC[C@H](c2ccc3c(c2)CCC3)CC1`, for which the solubility result in data set [2] is “soluble”. Besides, the IC50 worked out at 14 µM in data set [3] and 59 µM in data set [5]. Besides, the result in data set [4] and in data set [7] was Active.

`C[C@]12CC[C@H](c3ccccc3)C[C@H]1CC[C@@H]2OS(=O)(=O)O` (mixture of isomers): the solubility result in data set [2] is given as “soluble”. Besides, the IC50 in data set [3] was 54 µM; in data set [5], 128 µM. For the same molecule, in data set [4], the outcome was Active.

Consider `C[C@@]12CCC(CCOS(=O)(=O)O)C[C@H]1CCc1ccccc12` (mixture of isomers), for which the result (in the data set with HEK293 [8]; in the data set with HEK293 [9]; in the data set on HEK293 [10]; in data set [11]) was inactive. Moreover, the solubility entry in data set [2] is “soluble”. The values for the IC50 in [3] and in data set [5] were 12 µM and 15 µM, respectively. In data set [4], the outcome was Active. The Activity in [6] was 100%.

As a reminder, the Emax is the maximal effect, on the per cent scale that the assay sets. On to `C[C@]12CC[C@H](c3ccccc3)C[C@H]1CC[C@@H]2O` (mixture of isomers), for which, in [2], the solubility result is recorded as “soluble”. For the same molecule, in data set [12], the Emax was 43%. For the same molecule, the IC50 in data set [3] was determined as 20 µM; in data set [5] it was 37 µM. Moreover, the outcome in data set [4] and in data set [7] was Active. The Activity in data set [6] was determined as 100%.

Turning to `C[C@]12CC[C@H](OS(=O)(=O)O)CC1=CCc1cc(Br)ccc12`, in [2], the solubility entry was “soluble”. For the same molecule, the IC50 in data set [3] and in data set [5] was 10 µM each time. For the same molecule, the result in data set [4] and in [7] was Active. Moreover, the Activity in data set [6] was 100%.

With `CC(=O)c1cccc(C2=CC[C@@]3(C)[C@H](CC[C@@H]3O)C2)c1`, the outcome with HEK293 [1] was inactive. Moreover, the outcome in data set [13], in [14], in data set [15] and in data set [16] was Active.

With `O=S(=O)(O)O[C@H]1CC[C@H](c2ccc3c(c2)CCC3)CC1`, the solubility result in data set [2] is “soluble”. Besides, the figures for the IC50 in data set [3] and in data set [5] were 73 µM and 148 µM, respectively. Besides, in data set [4], the result was Active.

On to `C[C@@]12CCC(CCO)C[C@H]1CCc1ccccc12` (mixture of isomers), for which the result (in the data set on HEK293 [8]; with HEK293 [9]; in data set [11]) was inactive. Also, the outcome (in the data set with HEK293 [10] (filed as negative allosteric modulator); in [4]) was Active. The solubility result in [2] is “soluble”. For the same molecule, the IC50 in data set [3] stood at 14 µM; in [5] it was 29 µM. Besides, the Activity in data set [6] was 100%.

As to `O=S(=O)(O)O[C@H]1CC[C@@H](c2ccc3c(c2)CCC3)CC1`, the solubility result in [2] is listed as “soluble”. Further, the values for the IC50 in data set [3] and in data set [5] were 53 µM and 190 µM, respectively. Further, the outcome in [4] and in data set [7] was Active.
